IC50 data for 1 compound are collected here from paper PMC4304192, “KUD773, a phenylthiazole derivative, displays anticancer activity in human hormone-refractory prostate cancers through inhibition of tubulin polymerization and anti-Aurora A activity” (Journal of Biomedical Science, 2015).

The target of this assay is T1, Aurora A kinase (Homo sapiens, UniProt O14965).
T1 construct: gene AURKA
T1 sequence (O14965 1-403): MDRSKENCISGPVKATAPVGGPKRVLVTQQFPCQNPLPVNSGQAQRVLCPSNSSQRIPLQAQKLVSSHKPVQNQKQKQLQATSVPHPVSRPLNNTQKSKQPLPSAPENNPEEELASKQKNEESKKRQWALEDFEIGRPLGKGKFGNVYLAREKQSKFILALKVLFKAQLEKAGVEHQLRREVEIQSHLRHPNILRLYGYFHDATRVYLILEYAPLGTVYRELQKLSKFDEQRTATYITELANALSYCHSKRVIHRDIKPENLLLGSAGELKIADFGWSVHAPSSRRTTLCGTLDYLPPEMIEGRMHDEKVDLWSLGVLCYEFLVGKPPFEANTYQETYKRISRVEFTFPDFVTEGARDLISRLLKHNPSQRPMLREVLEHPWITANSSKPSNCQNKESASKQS
The assay can be described thus: Aurora A luminescent kinase assay (Kinase-Glo Plus, […] ATP, LRRWSLG peptide substrate). It is filed as biochemical.

As to `FC(F)(F)c1cccc(-c2csc(-n3ccnc3)n2)c1` [KUD773, 2-(1H-imidazol-1-yl)-4-(3-(trifluoromethyl)phenyl)thiazole], the IC50 was found to be 30 µM.
